Experimental findings from US10722501B2 (BAYER AKTIENGESELLSCHAFT, priority 2016, dated 2020) are described below.

The target in this assay is T1, recombinant full-length human prolyl endopeptidase (PREP) (Homo sapiens, UniProt P48147).
T1 construct: To recombinant full-length human prolyl endopeptidase (PREP, R&D-Systems, 4308-SE); purchased R&D-Systems 4308-SE
T1 sequence (P48147 1-710): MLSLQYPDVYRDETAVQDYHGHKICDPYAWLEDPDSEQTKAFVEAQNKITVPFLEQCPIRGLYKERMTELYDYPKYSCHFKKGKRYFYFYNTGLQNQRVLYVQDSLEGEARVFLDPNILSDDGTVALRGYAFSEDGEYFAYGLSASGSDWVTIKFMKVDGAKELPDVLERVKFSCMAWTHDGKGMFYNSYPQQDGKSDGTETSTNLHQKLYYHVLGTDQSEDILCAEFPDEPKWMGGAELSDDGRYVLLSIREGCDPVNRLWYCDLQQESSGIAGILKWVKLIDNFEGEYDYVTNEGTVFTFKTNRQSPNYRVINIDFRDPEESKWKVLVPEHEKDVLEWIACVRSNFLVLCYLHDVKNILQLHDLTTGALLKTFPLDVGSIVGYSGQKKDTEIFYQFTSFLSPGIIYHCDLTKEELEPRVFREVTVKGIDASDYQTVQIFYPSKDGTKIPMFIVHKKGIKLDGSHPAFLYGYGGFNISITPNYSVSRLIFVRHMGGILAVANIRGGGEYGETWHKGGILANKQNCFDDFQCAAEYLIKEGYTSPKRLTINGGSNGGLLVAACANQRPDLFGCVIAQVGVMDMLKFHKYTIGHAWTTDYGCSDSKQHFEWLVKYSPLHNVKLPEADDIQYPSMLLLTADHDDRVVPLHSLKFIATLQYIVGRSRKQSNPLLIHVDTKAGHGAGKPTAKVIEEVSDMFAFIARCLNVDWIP
Nature of the assay: Biochemical human prolyl endopeptidase (PREP) assay with fluorescently labelled substrate. Particulars: substrate Z-Gly-Pro-AMC 50 μM, 32° C., 60 min; some as mean values from multiple independent determinations. In a few lines: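 Initial rates of fluorescence increase from 50 μM Z-Gly-Pro-AMC cleavage (ex 360/em 465 nm, 60 min, 32° C) give percent PREP activity versus no-compound control, and IC50 is interpolated. Enzyme used at 0.4 nM (final, example) in Tris pH 7.5 with EDTA, GSH, BSA and Brij-35; compounds span 1 nM to 30 μM.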
Consider `Cc1ccc(C2(Cn3nc4n(c3=O)[C@H](C(=O)N3CCC(F)(F)C3)CCC4)CC2)cc1` [Example 524, (5S)-5-[(3,3-Difluoropyrrolidin-1-yl)carbonyl]-2-{[1-(4-methylphenyl)cyclopropyl]methyl}-5,6,7,8-tetrahydro[1,2,4]triazolo[4,3-a]pyridin-3(2H)-one], for which the IC50 is 2.9 nM.

With `Cc1ccc(C2(Cn3nc4n(c3=O)[C@H](C(=O)N3CC[C@H](O)C3)CCC4)CC2)cc1` [Example 525, (5S)-5-{[(3S)-3-Hydroxypyrrolidin-1-yl]carbonyl}-2-{[1-(4-methylphenyl)cyclopropyl]methyl}-5,6,7,8-tetrahydro[1,2,4]triazolo[4,3-a]pyridin-3(2H)-one], the half-maximal inhibitory concentration (IC50) was found to be 15.2 nM. Take `Cc1ccc(C2(Cn3nc4n(c3=O)[C@H](C(=O)N3CC[C@H](F)C3)CCC4)CC2)cc1` [Example 526, (5S)-5-{[(3S)-3-Fluoropyrrolidin-1-yl]carbonyl}-2-{[1-(4-methylphenyl)cyclopropyl]methyl}-5,6,7,8-tetrahydro[1,2,4]triazolo[4,3-a]pyridin-3(2H)-one]: the IC50 came to 0.38 nM. As to `O=C([C@@H]1CCCc2nn(CC3(c4ccc(C(F)(F)F)cc4)CC3)c(=O)n21)N1CC(F)C1` [Example 527, (5S)-5-[(3-Fluoroazetidin-1-yl)carbonyl]-2-({1-[4-(trifluoromethyl)phenyl]cyclopropyl}methyl)-5,6,7,8-tetrahydro[1,2,4]triazolo[4,3-a]pyridin-3(2H)-one], the IC50 came out at 1.2 nM.

`COc1ccc(C2(Cn3nc4n(c3=O)[C@H](C(=O)N3CC[C@H](F)C3)CCC4)CC2)cc1` [Example 528, (5S)-5-{[(3S)-3-Fluoropyrrolidin-1-yl]carbonyl}-2-{[1-(4-methoxyphenyl)cyclopropyl]methyl}-5,6,7,8-tetrahydro[1,2,4]triazolo[4,3-a]pyridin-3(2H)-one]: the IC50 was determined as 0.72 nM.

In the case of `COc1ccc(C2(Cn3nc4n(c3=O)[C@H](C(=O)N3CCC(F)(F)C3)CCC4)CC2)cc1` [Example 529, (5S)-5-[(3,3-Difluoropyrrolidin-1-yl)carbonyl]-2-{[1-(4-methoxyphenyl)cyclopropyl]methyl}-5,6,7,8-tetrahydro[1,2,4]triazolo[4,3-a]pyridin-3(2H)-one], the IC50 was 0.96 nM. As to `O=C([C@@H]1CCCc2nn(CC3(c4ccc(F)cc4F)CC3)c(=O)n21)N1CCCC1` [Example 530, (5S)-2-{[1-(2,4-Difluorophenyl)cyclopropyl]methyl}-5-(pyrrolidin-1-ylcarbonyl)-5,6,7,8-tetrahydro[1,2,4]triazolo[4,3-a]pyridin-3(2H)-one], the IC50 turned out to be 0.22 nM. As for `O=C([C@@H]1CCCc2nn(Cc3ccc(C(F)(F)F)cn3)c(=O)n21)N1CCCC1` [Example 531, (5S)-5-(Pyrrolidin-1-ylcarbonyl)-2-{[5-(trifluoromethyl)pyridin-2-yl]methyl}-5,6,7,8-tetrahydro[1,2,4]triazolo[4,3-a]pyridin-3(2H)-one], the figure is 3 nM.

For `COc1ccc(Cn2nc3n(c2=O)[C@H](C(=O)N2CC(F)(F)C2)CCC3)nc1` [Example 532, (5S)-5-[(3,3-Difluoroazetidin-1-yl)carbonyl]-2-[(5-methoxypyridin-2-yl)methyl]-5,6,7,8-tetrahydro[1,2,4]triazolo[4,3-a]pyridin-3(2H)-one], the IC50 was 34 nM. As for `O=C([C@@H]1CCCc2nn(Cc3nccc(C(F)(F)F)c3Cl)c(=O)n21)N1CCCC1` [Example 533, (5S)-2-{[3-Chloro-4-(trifluoromethyl)pyridin-2-yl]methyl}-5-(pyrrolidin-1-ylcarbonyl)-5,6,7,8-tetrahydro[1,2,4]triazolo[4,3-a]pyridin-3(2H)-one], the figure is 0.44 nM; as for `Cn1nc(Cn2nc3n(c2=O)[C@H](C(=O)N2CC(F)C2)CCC3)c2cccnc21` [Example 534, (5S)-5-[(3-Fluoroazetidin-1-yl)carbonyl]-2-[(1-methyl-1H-pyrazolo[3,4-b]pyridin-3-yl)methyl]-5,6,7,8-tetrahydro[1,2,4]triazolo[4,3-a]pyridin-3(2H)-one], 1.23 nM; as for `O=C([C@@H]1CCCc2nn(Cc3cncc(C(F)(F)F)c3)c(=O)n21)N1CCCC1` [Example 535, (5S)-5-(Pyrrolidin-1-ylcarbonyl)-2-{[5-(trifluoromethyl)pyridin-3-yl]methyl}-5,6,7,8-tetrahydro[1,2,4]triazolo[4,3-a]pyridin-3(2H)-one], 5.1 nM. As for `O=C([C@@H]1CCCc2nn(Cc3ccc(F)nc3)c(=O)n21)N1CCC(F)(F)C1` [Example 536, (5S)-5-[(3,3-Difluoropyrrolidin-1-yl)carbonyl]-2-[(6-fluoropyridin-3-yl)methyl]-5,6,7,8-tetrahydro[1,2,4]triazolo[4,3-a]pyridin-3(2H)-one], the figure is 9.6 nM. As for `O=C([C@@H]1CCCc2nn(Cc3ccc(F)nc3)c(=O)n21)N1CC(F)(F)C1` [Example 537, (5S)-5-[(3,3-Difluoroazetidin-1-yl)carbonyl]-2-[(6-fluoropyridin-3-yl)methyl]-5,6,7,8-tetrahydro[1,2,4]triazolo[4,3-a]pyridin-3(2H)-one], the figure is 8.8 nM. Consider `COc1ccc(Cn2nc3n(c2=O)[C@H](C(=O)N2CCCC2)CCC3)cn1` [Example 538, (5S)-2-[(6-Methoxypyridin-3-yl)methyl]-5-(pyrrolidin-1-ylcarbonyl)-5,6,7,8-tetrahydro[1,2,4]triazolo[4,3-a]pyridin-3(2H)-one], for which the IC50 came out at 0.82 nM. As for `O=C([C@@H]1CCCc2nn(Cc3cc(C(F)(F)F)nc4ccccc34)c(=O)n21)N1CC[C@H](F)C1` [Example 539, (5S)-5-{[(3S)-3-Fluoropyrrolidin-1-yl]carbonyl}-2-{[2-(trifluoromethyl)quinolin-4-yl]methyl}-5,6,7,8-tetrahydro[1,2,4]triazolo[4,3-a]pyridin-3(2H)-one], the figure is 0.85 nM; as for `O=C([C@@H]1CCCc2nn(Cc3nc(C(F)(F)F)no3)c(=O)n21)N1CC(F)C1` [Example 540, (5S)-5-[(3-Fluoroazetidin-1-yl)carbonyl]-2-{[3-(trifluoromethyl)-1,2,4-oxadiazol-5-yl]methyl}-5,6,7,8-tetrahydro[1,2,4]triazolo[4,3-a]pyridin-3(2H)-one], 27 nM. As for `O=C([C@@H]1CCCc2nn(Cc3nnc(C(F)(F)F)o3)c(=O)n21)N1CCC(F)(F)C1` [Example 541, (5S)-5-[(3,3-Difluoropyrrolidin-1-yl)carbonyl]-2-{[5-(trifluoromethyl)-1,3,4-oxadiazol-2-yl]methyl}-5,6,7,8-tetrahydro[1,2,4]triazolo[4,3-a]pyridin-3(2H)-one], the figure is 63 nM; as for `O=C([C@@H]1CCCc2nn(Cc3nnc(C(F)(F)F)o3)c(=O)n21)N1CC(F)C1` [Example 542, (5S)-5-[(3-Fluoroazetidin-1-yl)carbonyl]-2-{[5-(trifluoromethyl)-1,3,4-oxadiazol-2-yl]methyl}-5,6,7,8-tetrahydro[1,2,4]triazolo[4,3-a]pyridin-3(2H)-one], 94 nM; as for `O=C([C@@H]1CCCc2nn(Cc3nnc(C(F)(F)F)o3)c(=O)n21)N1C[C@@H](F)[C@@H](F)C1` [Example 543, (5S)-5-{[(3R,4S)-3,4-Difluoropyrrolidin-1-yl]carbonyl}-2-{[5-(trifluoromethyl)-1,3,4-oxadiazol-2-yl]methyl}-5,6,7,8-tetrahydro[1,2,4]triazolo[4,3-a]pyridin-3(2H)-one], 33.5 nM. As for `O=C([C@@H]1CCCc2nn(Cc3nnc(C(F)(F)F)o3)c(=O)n21)N1CC[C@H](F)C1` [Example 544, (5S)-5-{[(3S)-3-Fluoropyrrolidin-1-yl]carbonyl}-2-{[5-(trifluoromethyl)-1,3,4-oxadiazol-2-yl]methyl}-5,6,7,8-tetrahydro[1,2,4]triazolo[4,3-a]pyridin-3(2H)-one], the figure is 4.4 nM; as for `O=C([C@@H]1CCCc2nn(Cc3cnc(C(F)(F)F)c(Cl)c3)c(=O)n21)N1CCCC1` [Example 545, (5S)-2-{[5-Chloro-6-(trifluoromethyl)pyridin-3-yl]methyl}-5-(pyrrolidin-1-ylcarbonyl)-5,6,7,8-tetrahydro[1,2,4]triazolo[4,3-a]pyridin-3(2H)-one], 0.67 nM. Turning to `O=C([C@@H]1CCCc2nn(Cc3ccc(F)cc3)c(=O)n21)N1CC(F)C1` [Example 546, (5S)-5-[(3-Fluoroazetidin-1-yl)carbonyl]-2-(4-fluorobenzyl)-5,6,7,8-tetrahydro[1,2,4]triazolo[4,3-a]pyridin-3(2H)-one], the IC50 came to 0.57 nM. As for `O=C([C@@H]1CCCc2nn(Cc3ncc(Cl)cc3F)c(=O)n21)N1CC(F)C(F)C1` (stereo partly drawn) [Example 549], the figure is 36 nM.

The IC50 is the concentration at which inhibition is half-maximal.
